Drawing on ChEMBL document CHEMBL6103669, “Is a Fungal Apocalypse Inevitable or Just a Hallucination? An Overview of the Antifungal Armamentarium Used in the Fight against Pathogenic Fungi” (ACS Med Chem Lett, 2025), this text covers MIC80, IC50 and MIC50 for five compounds.

What is called MIC80 is an inhibitory concentration at the 80% level, which refers to growth in some studies and to a panel of isolates in others. For orientation: IC50 means the concentration needed to halve the response being measured. The MIC50 is the lowest concentration that inhibits either 50% of growth or 50% of the strains tested, depending on the study.

Each structure is given as a SMILES string. ≈ marks a conversion by molar mass, not a printed value.

Assay [1] has as its system Candida tropicalis. Kind of assay: Antifungal activity against Candida tropicalis 3890 assessed as reduction in fungal growth. Type of assay: functional.
Assay [2] deals with Candida tropicalis. Kind of assay: Antifungal activity against Candida tropicalis 5008 assessed as reduction in fungal growth. The class given is functional.
Assay [3] deals with Cryptococcus neoformans. Kind of assay: Antifungal activity against Cryptococcus neoformans H99. Type of assay: functional.
Assay [4] deals with T1, Sterol 24-C-methyltransferase (Candida albicans (strain SC5314 / ATCC MYA-2876) (Yeast), UniProt O74198).
T1 sequence (O74198 whole entry): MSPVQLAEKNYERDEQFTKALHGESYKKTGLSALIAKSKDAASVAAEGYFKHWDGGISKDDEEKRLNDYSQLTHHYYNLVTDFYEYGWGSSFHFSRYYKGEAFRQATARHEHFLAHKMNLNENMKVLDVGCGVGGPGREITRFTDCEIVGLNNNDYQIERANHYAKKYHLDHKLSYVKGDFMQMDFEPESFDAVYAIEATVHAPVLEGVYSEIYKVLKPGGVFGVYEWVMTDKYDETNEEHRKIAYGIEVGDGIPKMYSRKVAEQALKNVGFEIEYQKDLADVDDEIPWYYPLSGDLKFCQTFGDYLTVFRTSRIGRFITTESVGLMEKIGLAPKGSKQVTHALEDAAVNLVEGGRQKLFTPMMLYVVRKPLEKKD
In words: Inhibition of Candida albicans SC5314 Erg6.

Assay [5] addresses T1, Sterol 24-C-methyltransferase. In words: Inhibition of N-terminal His-tagged Candida albicans SC5314 Erg6 extracted from Escherichia coli BL21 (DE3) methyltransferase activity using zymosterol as substrate pre-incubated for 15 mins followed by substrate addition by liquid scintillation counter analysis.
Assay [6] concerns Candida albicans. In words: Antifungal activity against fluconazole-resistant Candida albicans 904 assessed as reduction in fungal growth by NCCLS method. Type of assay: functional.
In assay [7] the test system is Cryptococcus neoformans. In words: Antifungal activity against Cryptococcus neoformans H99 assessed as fungal growth inhibition measured after 48 hrs by resazurin assay. The class given is functional.
Assay [8] relates to Candida albicans. Kind of assay: Antifungal activity against fluconazole-resistant Candida albicans 901 assessed as inhibition of fungal growth. Type of assay: functional.

Turning to `O=C(CCCCCCCOc1ccc(CN2CCN(CC(O)(Cn3cncn3)c3ccc(F)cc3F)CC2)cc1)NO` (centres undefined), the MIC80 in assay [1], in assay [2] and in assay [3] was 0.5 µg/mL (≈ 0.852 µM) throughout.
For the compound `C=C(CC[C@@H](CO)[C@H]1CC[C@@]2(C)C3=C(CC[C@]12C)[C@@]1(C)CC[C@@H](OC(=O)C[C@@](C)(O)CC(=O)O)C(C)(C)[C@@H]1CC3)[C@H](C)C(=O)O`, the midpoint of inhibition in assay [4], the IC50, lay at 11.6 µM.
The compound `Cc1c(-n2c(-c3ccc(Br)cc3)cs/c2=N\c2ccccc2)c(=O)n(-c2ccccc2)n1C` gave an IC50 in assay [5] of 0.58 µM.
In the case of `COc1cc2c(cc1-c1c(C)noc1C)[nH]c1ncnc(NCCCCCCC(=O)NO)c12`, the MIC80 in assay [6] came to 0.5 µg/mL (≈ 1.1 µM); in assay [3], 8 µg/mL (≈ 17.7 µM).
In the case of `Clc1ccc(N/N=C(\c2ccccc2)c2ccccn2)nc1`, the MIC50 in assay [7] and in assay [8] was 0.5 µg/mL (≈ 1.62 µM) each time.
